Measurements as given in US10987349B2, “Antitumor agent and bromodomain inhibitor” (FUJIFILM Corporation, priority 2016, dated 2021).

Columns and labels:
[1] = tested on: human lymphoma cell line Raji; assay: Cell growth test (Cell Titer Glo) Raji; type: cell-based; conditions: 3 to 5 days
Description: (§1) The human undifferentiated thymoma cell line Ty-82 (JCRB), the human acute myeloid leukemia cell lines MV4-11 (ATCC), MOLM-13 (ATCC) and RS4-11 (ATCC), the human lymphoma cell line Raji (JCRB), the human cervical epidermoid carcinoma cell line Hela (JCRB), the human lung adenocarcinoma cell line A549 (ATCC), the human colon cancer cell lines DLD1 (DS Pharma) and HCT116 (DS Pharma), and the human pancreatic cancer cell line MIAPACA-2 (ATCC) were used to carry out a cell growth test.
Ty-82, MV4-11, MOLM-13, RS4-11, Raji and DLD1 were each seeded in a well plate, in which Roswell Park Memorial Institute (RPMI)-1640 medium supplemented with penicillin/streptomycin and fetal bovine serum (FBS) with a final concentration of 10% was placed. Hela was seeded in Dulbecco's Modified Eagle's medium (DMEM) supplemented with penicillin/streptomycin and FBS with a final concentration of 10%. A549 and MIAPACA-2 were each seeded in a well plate, in which Minimum Essential Medium (MEM) supplemented with penicillin/streptomycin and FBS with a final concentration of 10% was placed. […]
Thereafter, a medium containing a test compound serially diluted with DMSO, or DMSO, was added to each well of the plate, in which the cells had been seeded, and the obtained mixture was then cultured under conditions of 37° C. and 5% CO2 for 3 to 5 days. Cell Titer Glo reaction solution (Promega) was added to the culture, and the amount of luminescence was then measured using Envision plate reader (PerkinElmer). Since the amount of luminescence is in proportion to the concentration of adenosine triphosphate (ATP) in cells, the amount of luminescence was used as an indicator of the number of living cells. The growth inhibition percentage of the test compound in each concentration was calculated according to the following equation. Growth inhibition percentage (%)=(amount of luminescence in test compound−added well)/(amount of luminescence in DMSO−added well)×100 […]

MOLT-4 = assay: Cell growth test (Cell Titer Blue) MOLT-4; type: cell-based; conditions: Homo sapiens, 72 h, MOLT-4, Acute lymphoblastic leukemia, 3 days
Procedure: (§2) Moreover, the compound of Example 14 was subjected to a cell growth test using various types of cell lines.
(§3) All cell lines other than the below-noticed cells were each seeded in a well plate, in which an RPMI-1640 medium supplemented with penicillin/streptomycin and FBS with a final concentration of 10% was placed. The human prostate cancer cell line VCaP (ATCC) was seeded in a well plate, in which DMEM medium supplemented with penicillin/streptomycin and FBS with a final concentration of 10% was placed. […] Thereafter, using Enspire Multimode Plate Reader (PerkinElmer), the amount of fluorescence at an excitation wavelength of 531 nm and a fluorescence wavelength of 615 nm was measured. Since the amount of fluorescence is in proportion to the concentration of a florescent product resorufin that is converted from resazurin as a redox dye by living cells, the amount of fluorescence was used as an indicator of the number of living cells. The growth inhibition percentage of the test compound in each concentration was calculated according to the following equation. Growth inhibition percentage (%)=(amount of fluorescence in test compound−added well)/(amount of fluorescence in DMSO−added well)×100 […]

SU-DHL-4 = assay: Cell growth test (Cell Titer Blue) SU-DHL-4; type: cell-based; conditions: Homo sapiens, 72 h, SU-DHL-4, Lymphoma, 3 days
Procedure: as §2, §3

[2] = tested on: MV4-11 subcutaneously transplanted tumor; assay: Medicinal effect test, MV4-11-subcutaneously-transplanted cancer-bearing mouse models, oral administration; type: in vivo; conditions: orally, once per day, 14 days, BALB/c nu/nu mice
Procedure: The human acute myeloid leukemia cell line MV4-11 (ATCC) was suspended in a mixture of RPMI-1640 medium and Matrigel (Corning), and the obtained mixture was then subcutaneously transplanted into 6-week-old female BALB/c nu/nu mice (CLEA Japan, Inc.). After confirming that the average tumor volume exceeded 200 mm^3, a test compound was dissolved in a solvent (a 0.5% methyl cellulose aqueous solution or water containing 1 equivalent of hydrochloric acid), and the obtained solution was then orally administered to the mice at a daily dose of 10 to 30 mg/kg, once per day, for 14 days. As a negative control, a solvent administration group involving administration of a 0.5% methyl cellulose aqueous solution was established. The tumor diameter was measured on a daily basis, and the tumor volume was calculated. The tumor volume was calculated by measuring the major axis and minor axis of the tumor and then applying the following equation. Tumor volume (mm^3)=[major axis (mm)×minor axis (mm)×minor axis (mm)]/2
T/C (%) was calculated from the average tumor volume of each group according to the following equation, and medicinal effects were then evaluated. T/C(%)=[1−(average tumor volume of drug administration group)/(average tumor volume of solvent administration group)]×100%

[3] = tested on: human acute myeloid leukemia cell line MV4-11; assay: Cell growth test (Cell Titer Glo) MV4-11; type: cell-based; conditions: 3 to 5 days
Description: as §1
Ty-82, MV4-11, MOLM-13, RS4-11, Raji and DLD1 were each seeded in a well plate, in which Roswell Park Memorial Institute (RPMI)-1640 medium supplemented with penicillin/streptomycin and fetal bovine serum (FBS) with a final concentration of 10% was placed. Hela was seeded in Dulbecco's Modified Eagle's medium (DMEM) supplemented with penicillin/streptomycin and FBS with a final concentration of 10%. A549 and MIAPACA-2 were each seeded in a well plate, in which Minimum Essential Medium (MEM) supplemented with penicillin/streptomycin and FBS with a final concentration of 10% was placed. HCT116 was seeded in a well plate, in which McCoy's 5A medium supplemented with penicillin/streptomycin and FBS with a final concentration of 10% was placed.
Thereafter, a medium containing a test compound serially diluted with DMSO, or DMSO, was added to each well of the plate, in which the cells had been seeded, and the obtained mixture was then cultured under conditions of 37° C. and 5% CO2 for 3 to 5 days. Cell Titer Glo reaction solution (Promega) was added to the culture, and the amount of luminescence was then measured using Envision plate reader (PerkinElmer). Since the amount of luminescence is in proportion to the concentration of adenosine triphosphate (ATP) in cells, the amount of luminescence was used as an indicator of the number of living cells. The growth inhibition percentage of the test compound in each concentration was calculated according to the following equation. Growth inhibition percentage (%)=(amount of luminescence in test compound−added well)/(amount of luminescence in DMSO−added well)×100
The growth inhibition percentage of the test compound in each concentration was plotted by performing a non-linear regression analysis [(log (inhibitor) vs. response—Variable slope (four parameters)], using Graphpad prism 5, and a 50% growth inhibitory concentration [GI50 (nmol/L)] was then calculated.

GI50 [1] [nM]	GI50 (MOLT-4) [nM]	GI50 (SU-DHL-4) [nM]	GI50 [3] [nM]	SMILES	T/C (%) ([2]; 10 mg/kg)	T/C (%) ([2]; 30 mg/kg)
60	57	49	16	CCn1c(=O)cc(C2CCN(C)CC2)c2cc(C(=O)N(C)c3ccc(C)cc3)ccc21 [Example 14, 1-Ethyl-N-methyl-N-(4-methylphenyl)-4-(1-methylpiperidin-4-yl)-2-oxo-1,2-dihydroquinoline-6-carboxamide]	34	45
23			8	CCn1c(=O)cc(C2CCN(C)CC2)c2cc(C(=O)N(C)c3ccc4c(c3)CCC4)ccc21 [Example 17, N-(2,3-dihydro-1H-inden-5-yl)-1-ethyl-N-methyl-4-(1-methylpiperidin-4-yl)-2-oxo-1,2-dihydroquinoline-6-carboxamide]	21	49
97			15	CCn1c(=O)cc(N2CCOCC2)c2cc(-n3c(-c4ccc(Cl)cc4)c[nH]c3=O)ccc21 [Example 245, 6-(5-(4-chlorophenyl)-2-oxo-2,3-dihydro-1H-imidazol-1-yl)-1-ethyl-4-(morpholin-4-yl)quinolin-2(1H)-one]		42
